Laboratory results from patent US10597388B2, “Pyridazinone herbicides” (FMC CORPORATION, priority 2014, dated 2020).

What was measured:
Format in all cases: in vivo
[1] = test system: barnyardgrass (Echinochloa crus-galli); assay: Test C greenhouse herbicide test, pre- and postemergence
Excerpt: Seeds of plant species selected from blackgrass (Alopecurus myosuroides), ryegrass, Italian (Italian ryegrass, Lolium multiflorum), wheat (winter wheat, Triticum aestivum), galium (catchweed bedstraw, Galium aparine), corn (Zea mays), large crabgrass, large (large crabgrass, Digitaria sanguinalis), foxtail, giant (giant foxtail, Setaria faberii), johnsongrass (Sorghum halepense), lambsquarters (Chenopodium album), morningglory (Ipomoea coccinea), nutsedge, yellow (yellow nutsedge, Cyperus esculentus), pigweed (Amaranthus retroflexus), ragweed (common ragweed, Ambrosia elatior), soybean (Glycine max), barnyardgrass (Echinochloa crus-galli), oilseed rape (Brassica napus), waterhemp (common waterhemp, Amaranthus rudis), and velvetleaf (Abutilon theophrasti) were planted into a blend of loam soil and sand and treated preemergence with test chemicals formulated in a non-phytotoxic solvent mixture which included a surfactant.
At the same time, plants selected from these crop and weed species and also chickweed (common chickweed, Stellaria media), kochia (Kochia scoparia), and oat, wild (wild oat, Avena fatua), were planted in pots containing Redi-Earth® planting medium (Scotts Company, 14111 Scottslawn Road, Marysville, Ohio 43041) comprising spaghnum peat moss, vermiculite, wetting agent and starter nutrients and treated with postemergence applications of test chemicals formulated in the same manner. Plants ranged in height from 2 to 18 cm (1- to 4-leaf stage) for postemergence treatments. Treated plants and controls were maintained in a greenhouse for 13 to 15 d, after which time all species were compared to controls and visually evaluated. Plant response ratings, summarized in Table C, are based on a scale of 0 to 100 where 0 is no effect and 100 is complete control. A dash (-) response means no test result.

[2] = test system: pigweed (Amaranthus retroflexus); assay: Test A greenhouse herbicide test, pre- and postemergence
In short: (§1)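 Seeds in loam–sand blend received a preemergence directed soil spray; plants at 2–10 cm, one- to two-leaf stage, received postemergence sprays. Compounds in a non-phytotoxic solvent with surfactant. After about 10 d in a greenhouse, injury rated visually versus untreated controls on a 0–100 scale (100 = complete control).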

[3] = test system: kochia (Kochia scoparia); assay: as above
In short: as §1

[4] = test system: corn (Zea mays); assay: as above; conditions: Postemergence
In short: as §1

[5] = test system: foxtail, giant (giant foxtail, Setaria faberii); assay: as above
In short: as §1

[6] = test system: ragweed (common ragweed, Ambrosia elatior); assay: as above
In short: as §1

[7] = test system: wheat (Triticum aestivum); assay: as above; conditions: Postemergence
In short: as §1

[8] = test system: ryegrass, Italian (Italian ryegrass, Lolium multiflorum); assay: as above
In short: as §1

[9] = test system: barnyardgrass (Echinochloa crus-galli); assay: as above
In short: as §1

[10] = test system: blackgrass (Alopecurus myosuroides); assay: Test A greenhouse herbicide test, postemergence
In short: (§2)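 Pot-grown plants (loam soil/sand blend), 2–10 cm tall at the one- to two-leaf stage, received postemergence sprays of formulated test chemical. After about 10 d in the greenhouse, injury was rated visually against untreated controls on a 0 (no effect) to 100 (complete control) scale.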

[11] = test system: galium (catchweed bedstraw, Galium aparine); assay: Test A greenhouse herbicide test, postemergence
In short: as §2

[12] = Postemergence, 125 g ai/ha, scale 0 to 100, 0 is no effect, 100 is complete control
[13] = Postemergence, 250 g ai/ha, scale 0 to 100, 0 no effect, 100 complete control, 13 to 15 d
[14] = Preemergence, 31 g ai/ha, scale 0 to 100, 0 is no effect, 100 is complete control
[15] = Preemergence, 62 g ai/ha, scale 0 to 100, 0 is no effect, 100 is complete control
[16] = Preemergence, 125 g ai/ha, scale 0 to 100, 0 is no effect, 100 is complete control
[17] = Preemergence, 250 g ai/ha, scale 0 to 100 (0 no effect, 100 complete control)
[18] = postemergence, 62 g ai/ha, scale 0 to 100, 0 no effect, 100 complete control
[19] = Postemergence, 125 g ai/ha, 0 to 100 scale where 0 is no effect and 100 is complete control
[20] = Postemergence, 500 g ai/ha, 0 to 100 scale, 0 is no effect, 100 is complete control
[21] = Preemergence, 125 g ai/ha, 0 to 100 scale where 0 is no effect and 100 is complete control
[22] = Preemergence, 500 g ai/ha, 0 to 100 scale where 0 is no effect and 100 is complete control
[23] = 125 g ai/ha, 0 to 100 scale where 0 is no effect and 100 is complete control
[24] = 500 g ai/ha, 0 to 100 scale, 0 is no effect, 100 is complete control
[25] = Postemergence, 500 g ai/ha, visual rating after approx. 10 d, 0 to 100 scale (0 no effect, 100 complete control)
[26] = 500 g ai/ha, visual rating after approx. 10 d, 0 to 100 scale (0 no effect, 100 complete control)

COC(=O)Oc1c(C)nn(C)c(=O)c1-c1c(C)sc2c(C)cc(C)cc12 [Compound 81]
Barnyardgrass plant response rating ([1]; Postemergence, 31 g ai/ha, 0 to 100 scale (0 no effect, 100 complete control)): 25
Plant response rating, Barnyardgrass [1, 12]: 35
Plant response rating, Barnyardgrass [1, 13]: 60
Plant response rating, Barnyardgrass [1, 14]: 30
Plant response rating, Barnyardgrass [1, 15]: 70
Plant response rating, Barnyardgrass [1, 16]: 80
Barnyardgrass plant response rating [1, 17]: 98
Barnyardgrass plant response rating [1, 18]: 35
Plant response rating, Pigweed [2, 19]: 100
Pigweed plant response rating [2, 20]: 100
Pigweed plant response rating [2, 21]: 100
Plant response rating, Pigweed [2, 22]: 100
Plant response rating, Kochia [3, 19]: 60
Kochia plant response rating [3, 20]: 100
Kochia plant response rating [3, 21]: 30
Plant response rating, Kochia [3, 22]: 100
Plant response rating, Corn [4, 23]: 0
Corn plant response rating [4, 24]: 0
Plant response rating, Foxtail, Giant [5, 19]: 90
Foxtail, Giant plant response rating [5, 20]: 100
Foxtail, Giant plant response rating [5, 21]: 100
Plant response rating, Foxtail, Giant [5, 22]: 100
Plant response rating, Ragweed [6, 19]: 90
Ragweed plant response rating [6, 20]: 100
Ragweed plant response rating [6, 21]: 90
Plant response rating, Ragweed [6, 22]: 100
Plant response rating, Wheat [7, 23]: 0
Wheat plant response rating [7, 24]: 0
Plant response rating, Ryegrass, Italian [8, 19]: 100
Ryegrass, Italian plant response rating [8, 20]: 100
Ryegrass, Italian plant response rating [8, 21]: 100
Plant response rating, Ryegrass, Italian [8, 22]: 100
Plant response rating, Barnyardgrass [9, 19]: 30
Barnyardgrass plant response rating [9, 20]: 90
Barnyardgrass plant response rating [9, 21]: 90
Plant response rating, Barnyardgrass ([9]; Preemergence, 500 g ai/ha, 0 to 100 scale, 0 no effect, 100 complete control): 100
Plant response rating, Blackgrass [10, 23]: 90
Blackgrass plant response rating [10, 24]: 90
Plant response rating, Galium [11, 23]: 100
Galium plant response rating [11, 24]: 100

Cc1ccc2ccccc2c1-c1c(O)c(Cl)nn(C)c1=O [Compound 125]
Plant response rating, Barnyardgrass ([1]; Postemergence, 31 g ai/ha, scale 0 to 100 (0 no effect, 100 complete control)): 35
Plant response rating, Barnyardgrass [1, 12]: 80
Plant response rating, Barnyardgrass [1, 13]: 70
Plant response rating, Barnyardgrass [1, 14]: 55
Plant response rating, Barnyardgrass [1, 15]: 70
Plant response rating, Barnyardgrass [1, 16]: 90
Barnyardgrass plant response rating [1, 17]: 98
Barnyardgrass plant response rating [1, 18]: 40
Plant response rating, Pigweed [2, 19]: 100
Plant response rating, Pigweed [2, 25]: 100
Pigweed plant response rating [2, 21]: 100
Plant response rating, Pigweed [2, 22]: 100
Plant response rating, Kochia [3, 19]: 100
Plant response rating, Kochia [3, 25]: 100
Kochia plant response rating [3, 21]: 60
Plant response rating, Kochia [3, 22]: 90
Plant response rating, Corn [4, 23]: 20
Plant response rating, Corn [4, 26]: 30
Plant response rating, Foxtail, Giant [5, 19]: 90
Plant response rating, Foxtail, Giant [5, 25]: 90
Foxtail, Giant plant response rating [5, 21]: 90
Plant response rating, Foxtail, Giant [5, 22]: 100
Plant response rating, Ragweed [6, 19]: 90
Plant response rating, Ragweed [6, 25]: 100
Ragweed plant response rating [6, 21]: 80
Plant response rating, Ragweed [6, 22]: 90
Plant response rating, Wheat [7, 23]: 50
Plant response rating, Wheat [7, 26]: 80
Plant response rating, Ryegrass, Italian [8, 19]: 100
Plant response rating, Ryegrass, Italian [8, 25]: 100
Ryegrass, Italian plant response rating [8, 21]: 100
Plant response rating, Ryegrass, Italian [8, 22]: 100
Plant response rating, Barnyardgrass [9, 19]: 90
Plant response rating, Barnyardgrass [9, 25]: 90
Barnyardgrass plant response rating [9, 21]: 70
Plant response rating, Barnyardgrass [9, 22]: 90
Plant response rating, Blackgrass [10, 23]: 70
Plant response rating, Blackgrass [10, 26]: 80
Plant response rating, Galium [11, 23]: 90
Plant response rating, Galium [11, 26]: 90
